≈ marks a conversion by molar mass, not a printed value. Blank lines part the entries; values can stand above or below the molecule they belong to.
Assays:
[1] = anatomic pathology (histopathology of heart and kidney) in mice; format: in vivo; details: CD-1 mice, 20 mg/kg intravenously daily for 9 days, necropsy day 10, microscopic histopathology
Procedure: Samples of tissues from necropsied mice were formalin-fixed, paraffin-embedded, sectioned, stained with hematoxylin and eosin, and examined microscopically. Histopathologic findings were recorded. These findings were subjectively graded on a scale corresponding to slight, mild, moderate, marked and severe as compared to untreated controls.

[2] = test system: Escherichia coli; assay: in vitro antibacterial evaluation, MIC by broth dilution; format: cell-based; details: 18 hours at 35° C.
Method in brief: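 MIC is the lowest antibiotic concentration (tested 64-0.06 μg/mL) preventing growth of a 5×10^5 CFU/mL inoculum. Determined by broth dilution in Mueller-Hinton II medium following NCCLS standard M7-A2.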

[3] = test system: Staphylococcus sp.; assay: as above; format: cell-based; details: broth dilution, 18 hours at 35° C.; for MIC Staphylococcus aureus-SMITH (GC 4543): strain GC 4543; for MIC Staphylococcus haemolyticus (GC 4546): strain GC 4546
Method in brief: (§1)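 MIC, the lowest antibiotic concentration preventing growth, was read across 64-0.06 μg/mL with 5×10^5 CFU/mL inoculum. Method followed NCCLS M7-A2 broth dilution using Mueller-Hinton II; Gram-positive strains covered recent methicillin-, penicillin- and/or vancomycin-resistant clinical isolates.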

[4] = test system: Streptococcus sp.; assay: as above; format: cell-based; details: broth dilution, 18 hours at 35° C.
Method in brief: as §1

[5] = test system: Enterococcus sp.; assay: as above; format: cell-based; details: broth dilution, 18 hours at 35° C.
Method in brief: as §1

MIC Escherichia coli (ATCC 25922) [2]: >128 µg/mL
MIC Escherichia coli (GC 4559) [2]: >128 µg/mL
MIC Escherichia coli (GC 4560) [2]: >128 µg/mL
MIC Staphylococcus aureus (ATCC 29213) ([3]; strain ATCC 29213): >128 µg/mL
MIC Staphylococcus aureus (GC 1131) ([3]; strain GC 1131): >128 µg/mL
MIC Staphylococcus aureus (GC 3051) ([3]; strain GC 3051): >128 µg/mL
MIC Staphylococcus aureus (GC 3053) ([3]; strain GC 3053): >128 µg/mL
MIC Staphylococcus aureus (GC 4541) ([3]; strain GC 4541): >128 µg/mL
MIC Staphylococcus aureus (GC 4542) ([3]; strain GC 4542): >128 µg/mL
MIC Staphylococcus aureus-SMITH (GC 4543) [3]: >128 µg/mL
MIC Staphylococcus aureus (GC 4544) ([3]; strain GC 4544): >128 µg/mL
MIC Staphylococcus aureus (GC 4545) ([3]; strain GC 4545): >128 µg/mL
MIC Coagulase Negative Staphylococcus (GC 4547) ([3]; strain GC 4547): >128 µg/mL
MIC Coagulase Negative Staphylococcus (GC 4548) ([3]; strain GC 4548): >128 µg/mL
MIC Coagulase Negative Staphylococcus (GC 4549) ([3]; strain GC 4549): >128 µg/mL
MIC Coagulase Negative Staphylococcus (GC 4551) ([3]; strain GC 4551): >128 µg/mL
MIC Coagulase Negative Staphylococcus (GC 6257) ([3]; strain GC 6257): >128 µg/mL
MIC Streptococcus agalactiae (GC 4564) [4]: >128 µg/mL
MIC Streptococcus pneumoniae (ATCC 6301) [4]: 128 µg/mL (≈ 92.4 µM)
MIC Streptococcus pneumoniae (GC 1894) [4]: 64 µg/mL (≈ 46.2 µM)
MIC Streptococcus pneumoniae (GC 4565) [4]: 128 µg/mL (≈ 92.4 µM)
MIC Streptococcus pyogenes (GC 4563) [4]: >128 µg/mL
MIC Streptococcus pneumoniae (ATCC 6301) ([4]; strain ATCC 6301): 128 µg/mL (≈ 92.4 µM)
MIC Streptococcus pneumoniae (GC 1894) ([4]; strain GC 1894): 64 µg/mL (≈ 46.2 µM)
MIC Streptococcus pyogenes (GC 4563) ([4]; strain GC 4563): >128 µg/mL
MIC Streptococcus agalactiae (GC 4564) ([4]; strain GC 4564): >128 µg/mL
MIC Streptococcus pneumoniae (GC 4565) ([4]; strain GC 4565): 128 µg/mL (≈ 92.4 µM)
MIC Enterococcus avium (GC 4558) ([5]; Enterococcus avium (GC 4558)): 128 µg/mL (≈ 92.4 µM)
MIC Enterococcus faecalis (ATCC 29212) ([5]; Enterococcus faecalis (ATCC 29212)): >128 µg/mL
MIC Enterococcus faecalis (GC 4552) ([5]; Enterococcus faecalis (GC 4552)): >128 µg/mL
MIC Enterococcus faecalis (GC 4553) ([5]; Enterococcus faecalis (GC 4553)): >128 µg/mL
MIC Enterococcus faecalis (GC 4554) ([5]; Enterococcus faecalis (GC 4554)): >128 µg/mL
MIC Enterococcus faecalis (GC 6189) ([5]; Enterococcus faecalis (GC 6189)): >128 µg/mL
MIC Enterococcus faecium (GC 2243) ([5]; Enterococcus faecium (GC 2243)): >128 µg/mL
MIC Enterococcus faecium (GC 4556) ([5]; Enterococcus faecium (GC 4556)): >128 µg/mL
MIC Enterococcus faecium (GC 4557) ([5]; Enterococcus faecium (GC 4557)): 128 µg/mL (≈ 92.4 µM)
MIC Enterococcus avium (GC 4558) [5]: 128 µg/mL (≈ 92.4 µM)
MIC Enterococcus faecalis (ATCC 29212) [5]: >128 µg/mL
MIC Enterococcus faecalis (GC 2242) [5]: >128 µg/mL
MIC Enterococcus faecalis (GC 2691) [5]: >128 µg/mL
MIC Enterococcus faecalis (GC 3059) [5]: >128 µg/mL
MIC Enterococcus faecalis (GC 4552) [5]: >128 µg/mL
MIC Enterococcus faecalis (GC 4553) [5]: >128 µg/mL
MIC Enterococcus faecalis (GC 4554) [5]: >128 µg/mL
MIC Enterococcus faecalis (GC 6189) [5]: >128 µg/mL
MIC Enterococcus faecium (GC 2243) [5]: >128 µg/mL
MIC Enterococcus faecium (GC 4556) [5]: >128 µg/mL
MIC Enterococcus faecium (GC 4557) [5]: 128 µg/mL (≈ 92.4 µM)
MIC Enterococcus faecalis (GC 2242) ([5]; strain GC 2242): >128 µg/mL
MIC Enterococcus faecalis (GC 2691) ([5]; strain GC 2691): >128 µg/mL
MIC Enterococcus faecalis (GC 3059) ([5]; strain GC 3059): >128 µg/mL
Structure (SMILES): CC(c1ccccc1)C1NC(=O)CNC(=O)C(CO)NC(=O)C(C(O)C2CN(Cc3ccccc3)C(=N)N2C2OC(CO)C(O)C(O)C2O)NC(=O)C(C(O)C2CNC(=N)N2)NC(=O)C(Cc2ccc(OC3OC(CO)C(OC4OC(CO)C(O)C(O)C4O)C(O)C3O)cc2)NC1=O (stereo not drawn) [Example 59, Cyclo[glycyl-β-methylphenylalanyl-O-(4-O-hexopyranosylhexopyranosyl)tyrosyl-(2-iminoimidazolidin-4-yl)seryl-3-[1-benzyl-3-hexopyranosyl-2-iminoimidazolidin-4-yl]serylseryl]]
Anatomical Pathology (Day 10), Heart [1]: 0
Anatomical Pathology (Day 10), Kidney [1]: 0
MIC Staphylococcus haemolyticus (GC 4546) [3]: >128 µg/mL

Structure (SMILES): CC(c1ccccc1)C1NC(=O)CNC(=O)C(CO)NC(=O)C(C(O)C2CN(Cc3ccc(-c4ccccc4)cc3)C(=N)N2C2OC(CO)C(O)C(O)C2O)NC(=O)C(C(O)C2CNC(=NCc3ccc(-c4ccccc4)cc3)N2Cc2ccc(-c3ccccc3)cc2)NC(=O)C(Cc2ccc(OC3OC(CO)C(OC4OC(CO)C(O)C(O)C4O)C(O)C3O)cc2)NC1=O (stereo not drawn) [Example 66, Cyclo[glycyl-β-methylphenylalanyl-O-(4-O-hexopyranosylhexopyranosyl)tyrosl-3-[3-(4-phenylbenzyl)-2-(4-phenylbenzyl)iminolimidazolidin-4-yl]seryl-3-[3-hexopyranosyl-2-imino-1-(4-phenylbenzyl)-imidazolidin-4-yl]serylseryl]]
Anatomical Pathology (Day 10), Heart [1]: 0
Anatomical Pathology (Day 10), Kidney [1]: 0
MIC Escherichia coli (ATCC 25922) [2]: >128 µg/mL
MIC Escherichia coli (GC 4559) [2]: >128 µg/mL
MIC Escherichia coli (GC 4560) [2]: 4 µg/mL (≈ 2.23 µM)
MIC Staphylococcus aureus-SMITH (GC 4543) [3]: 8 µg/mL (≈ 4.46 µM)
MIC Staphylococcus haemolyticus (GC 4546) [3]: 4 µg/mL (≈ 2.23 µM)
MIC Streptococcus agalactiae (GC 4564) [4]: 32 µg/mL (≈ 17.8 µM)
MIC Streptococcus pneumoniae (ATCC 6301) [4]: 32 µg/mL (≈ 17.8 µM)
MIC Streptococcus pneumoniae (GC 1894) [4]: 32 µg/mL (≈ 17.8 µM)
MIC Streptococcus pneumoniae (GC 4565) [4]: 64 µg/mL (≈ 35.7 µM)
MIC Streptococcus pyogenes (GC 4563) [4]: 16 µg/mL (≈ 8.92 µM)
MIC Streptococcus pneumoniae (ATCC 6301) ([4]; strain ATCC 6301): 32 µg/mL (≈ 17.8 µM)
MIC Streptococcus pneumoniae (GC 1894) ([4]; strain GC 1894): 32 µg/mL (≈ 17.8 µM)
MIC Streptococcus pyogenes (GC 4563) ([4]; strain GC 4563): 16 µg/mL (≈ 8.92 µM)
MIC Streptococcus agalactiae (GC 4564) ([4]; strain GC 4564): 32 µg/mL (≈ 17.8 µM)
MIC Streptococcus pneumoniae (GC 4565) ([4]; strain GC 4565): 64 µg/mL (≈ 35.7 µM)
MIC Enterococcus avium (GC 4558) [5]: 4 µg/mL (≈ 2.23 µM)
MIC Enterococcus faecalis (ATCC 29212) [5]: 16 µg/mL (≈ 8.92 µM)
MIC Enterococcus faecalis (GC 2242) [5]: 16 µg/mL (≈ 8.92 µM)
MIC Enterococcus faecalis (GC 2691) [5]: 32 µg/mL (≈ 17.8 µM)
MIC Enterococcus faecalis (GC 3059) [5]: 32 µg/mL (≈ 17.8 µM)
MIC Enterococcus faecalis (GC 4552) [5]: 32 µg/mL (≈ 17.8 µM)
MIC Enterococcus faecalis (GC 4553) [5]: 8 µg/mL (≈ 4.46 µM)
MIC Enterococcus faecalis (GC 4554) [5]: 64 µg/mL (≈ 35.7 µM)
MIC Enterococcus faecalis (GC 6189) [5]: 32 µg/mL (≈ 17.8 µM)
MIC Enterococcus faecium (GC 2243) [5]: 8 µg/mL (≈ 4.46 µM)
MIC Enterococcus faecium (GC 4556) [5]: 32 µg/mL (≈ 17.8 µM)
MIC Enterococcus faecium (GC 4557) [5]: 4 µg/mL (≈ 2.23 µM)
MIC Enterococcus faecalis (GC 2242) ([5]; strain GC 2242): 16 µg/mL (≈ 8.92 µM)
MIC Enterococcus faecalis (GC 2691) ([5]; strain GC 2691): 32 µg/mL (≈ 17.8 µM)
MIC Enterococcus faecalis (GC 3059) ([5]; strain GC 3059): 32 µg/mL (≈ 17.8 µM)

Reference: patent US6914045B2, “Glycopeptide antibiotics” (Wyeth Holdings Corporation, priority 2001, dated 2005)
